# In PubChem BioAssay (NCI):
#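 Dose response: 5 concentrations. Exposure: 48 h. Format: 96-well plates. Endpoint: linear interpolation; highest concentration if not reached. GI50 marks 50% less growth. Definition used: TGI = concentration required for complete inhibition of growth.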
# Key:
# Assay in all cases: NCI tumour cell line growth inhibition, 48 h
# ACHN renal = tested on: ACHN renal
# HCT-15 colon = tested on: HCT-15 colon
# IGROV1 ovarian = tested on: IGROV1 ovarian
# NCI-H23 lung = tested on: NCI-H23 lung
# OVCAR-3 ovarian = tested on: OVCAR-3 ovarian
# OVCAR-4 ovarian = tested on: OVCAR-4 ovarian
# SF-295 CNS = tested on: SF-295 CNS
# SN12C renal = tested on: SN12C renal
# UACC-257 melanoma = tested on: UACC-257 melanoma
# UACC-62 melanoma = tested on: UACC-62 melanoma
# DU-145 prostate = tested on: DU-145 prostate
# HOP-92 NSCLC = tested on: HOP-92 NSCLC
Structure (SMILES),TGI (ACHN renal) [µM],TGI (HCT-15 colon) [µM],TGI (IGROV1 ovarian) [µM],TGI (NCI-H23 lung) [µM],TGI (OVCAR-3 ovarian) [µM],TGI (OVCAR-4 ovarian) [µM],TGI (SF-295 CNS) [µM],TGI (SN12C renal) [µM],TGI (UACC-257 melanoma) [µM],TGI (UACC-62 melanoma) [µM],TGI (DU-145 prostate) [µM],TGI (HOP-92 NSCLC) [µM],GI50 (DU-145 prostate) [µM],GI50 (HCT-15 colon) [µM],GI50 (HOP-92 NSCLC) [µM],GI50 (IGROV1 ovarian) [µM],GI50 (NCI-H23 lung) [µM],GI50 (OVCAR-3 ovarian) [µM],GI50 (SN12C renal) [µM]
Cc1c(C(=O)Nc2ccc(Cl)c(C(F)(F)F)c2)oc2cc(O)ccc2/c1=N\NC(N)=S,> 100,> 100,> 100,> 100,> 100,> 100,> 100,> 100,> 100,> 100,,,,,,,,,
CC1=C/C(=N\N(C)C)C(C(O)(C(F)(F)F)C(F)(F)F)C(C)(C)C1 (configuration not stated),> 100,> 100,> 100,> 100,87.8,> 100,> 100,> 100,> 100,> 100,> 100,81,,,,,,,
CC1(C)C[C@H]2C3=CC[C@@H]4[C@@]5(C)CC[C@H](O)C(C)(C)[C@@H]5CC[C@@]4(C)[C@]3(C)C[C@@H](O)[C@@]23C[C@@H]1OC3=O,> 100,> 100,> 100,> 100,> 100,> 100,> 100,> 100,> 100,> 100,> 100,> 100,,,,,,,
CO[C@H]1C[C@@H]2CC[C@@H](C)[C@@](O)(O2)C(=O)C(=O)N2CCCC[C@H]2C(=O)O[C@H]([C@H](C)C[C@@H]2CC[C@@H](OC(=O)C(C)(CO)CO)[C@H](OC)C2)CC(=O)[C@H](C)/C=C(\C)[C@@H](O)[C@@H](OC)C(=O)[C@H](C)C[C@H](C)/C=C/C=C/C=C/1C,> 100,> 100,15.3,> 100,> 100,,> 100,> 71.3,51.5,29.7,> 100,,0.0379,< 0.0222,1.58,0.000946,1.34,1.78,0.497
CSC1=N/C(=C\c2ccc(Cl)cc2)C(=O)N1CN1CCOCC1,> 100,> 100,> 100,> 100,> 100,61.6,> 100,> 100,,> 100,> 100,30.6,,,,,,,
CN(C)c1cccc(-c2cc(=O)c3cc4c(cc3[nH]2)OCO4)c1,> 37,> 90,> 47.5,,0.0575,4.59,0.693,> 100,> 100,> 100,,> 100,,,,,,,
CCOC(=O)C1C(C(C)C)C2(C#N)C(=N)OC1(C)C2(C#N)C#N (configuration not stated),> 100,> 100,> 100,> 100,,,> 100,> 100,> 100,> 100,> 100,> 100,,,,,,,
